Test [1] relates to unilateral transverse femur fractures mice. Conditions: osteoclast inhibitors; cited from earlier work.
Test [2] deals with three millimeter defects in femurs of athymic rats. Description: Critical defect model in rat femurs, new bone formation by MicroCT. The test is classed as in vivo. Conditions: two micrograms recombinant RANKL mixed with 150 mg Grafton DBM FLEX vs Grafton DBM FLEX alone, three weeks. The protocol:
To test whether recombinant RANKL mixed with DBM may aid bone healing, a critical defect model was used in rat femurs. Three millimeter defects were created in femurs of athymic rats. The rats were divided into two groups, the bone defects from one group were implanted with 150 mg of Grafton® DBM FLEX (Osteotech, Eatontown, N.J.), the second group received Grafton® DBM FLEX mixed with two micrograms of recombinant RANKL. At three weeks, the rat femur defects were evaluated by MicroCT. […] Data was analyzed using paired student-t-test.

Turning to denosumab: osteoclast inhibitor, the “removal of cartilage and remodeling of the fracture callus” value in test [1] is “delayed”. For `NCCCC(O)(P(=O)(O)O)P(=O)(O)O` [alendronate], the “removal of cartilage and remodeling of the fracture callus” value in test [1] was “delayed”.

B1: RANKL: recombinant receptor activator for nuclear factor κ B ligand, mixed with Grafton DBM FLEX demineralized bone matrix implant (protein, UniProt O14788 140-317, looked up)
Tumor necrosis factor ligand …: IRAEKAMVDGSWLDLAKRSKLEAQPFAHLTINATDIPSGSHKVSLSSWYHDRGWAKISNMTFSNGKLIVNQDGFYYLYANICFRHHETSGDLATEYLQLMVYVTKTSIKIPSSHTLMKGGSTKYWSGNSEFHFYSINVGGFFKLRSGEEISIEVSNPSLLDPDQDATYFGAFKVRDID
Turning to B1, the “new bone formation compared to control group” value in test [2] is on record as “significantly (p<0.05) higher”.

These data come from patent US9597431B2, “Compositions and methods for promoting bone formation” (Warsaw Orthopedic, Inc., priority 2008, dated 2017).
